Structures can show the parent of a compound that is named as a salt. Where two headings read alike, the source gives them in different places.
Legend:
[1] = Bulk stability in very high humidity, one week; type: physicochemical
Description: Bulk Stability in Very High Humidity: The trihydrate form of the dihydrochloride salt was stressed at 25° C. and 97% relative humidity (open), 40° C. and 96% relative humidity (open), and 60° C. and 96% relativity humidity (open) for one week.

[2] = Stability of the trihydrate form stored in bulk in a GMP storage facility; type: physicochemical; conditions: room temperature, RH >30%, up to 11 years
Description: The trihydrate form was evaluated for stability with regard to purity and strength over a time period of up to 11 years, by storing it in a GMP facility under controlled conditions of temperature and relative humidity (temperature=room temperature and relative humidity >30%).

[3] = Bulk stability under stressed conditions, one or two weeks; type: physicochemical; conditions: all temperatures and humidities tested, one week or two weeks
Description: Bulk Stability Under Stressed Conditions: About 20-30 mg of the trihydrate form of the dihydrochloride salt was weighed into HPLC vials and stressed at 25° C. and 60% relative humidity (open), 40° C. and 75% relative humidity (open), and 60° C. (closed) for one week and for two weeks.

[4] = for Resulting Form: slurry, antisolvent Water, ambient, 3 weeks
Description: Noncompetitive Slurry Experiments for Polymorph Screening: Noncompetitive slurry experiments were performed as a supplemental polymorph screening method. When suspensions of a polymorphic material are prepared, any polymorphic form with a lower solubility (more thermodynamically stable form) can nucleate. The nucleated forms can convert all the residual solids to the nucleated form via solvent-mediated phase transition. Suspensions of the isolated Form I were prepared by adding excess solid to several different solvent systems. The suspensions were stirred vigorously at ambient temperature for 3 weeks. The remaining solids were collected by vacuum filtration and analyzed by powder X-ray diffraction to determine if any changes in the crystalline form of the solids occurred.

[5] = Dehydration profile by thermographic analysis (TGA); type: physicochemical; conditions: 25° C. to 250° C.
Description: Thermographic analysis (TGA) curves were generated for the anhydrate and trihydrate using a Perkin Elmer TGA-7. Three to five milligram samples were weighed into aluminum sample pans and run under dry nitrogen at 5° C./minute from 25° C. to 250° C. The data were exported to Excel to enable plotting.
The two differ in the appearance of the dehydration mass loss observed for the trihydrate and absent as expected from the anhydrate. Dehydration of the trihydrate started immediately upon start of heating and was complete by approximately 50° C. Complete dehydration below 100° C. is consistent with the assignment of the trihydrate as a channel type hydrate.

[6] = 12-month stability of the anhydrous form at controlled temperature and humidity (HPLC, water content); type: physicochemical; conditions: 25° C./60% RH
Description: The dihydrochloride salt, anhydrous form of (3S, 4R, 3′R)-6-[4-(4-amino-5-chloro-2-methoxy-benzoylamino)-3-methoxy-piperidin-1-yl]-hexanoic acid 1-azabicyclo[2.2.2]oct-3′-yl ester, was placed in stability chambers with temperature and humidity controlled, for up to 12 months. The temperature was set at 25° C., and the relative humidity was set at 60%. The samples were assayed at time zero, then at 3, 6, 9, and 12 months using an HPLC method. The HPLC conditions were as follows:
Column: Inertsil C8-3, 250 mm length, 3 mm diameter, 5 um particle size
Mobile Phase A: 2000 mL water+3 mL formic acid
Mobile Phase B: 1000 mL methanol+3 mL formic acid
Detection wavelength: 275 nm

Molecule: COc1cc(N)c(Cl)cc1C(=O)N[C@@H]1CCN(CCCCCC(=O)O[C@H]2CN3CCC2CC3)C[C@@H]1OC [Compound 1, (3S, 4R, 3′R)-6-[4-(4-amino-5-chloro-2-methoxy-benzoylamino)-3-methoxy-piperidin-1-yl]-hexanoic acid 1-azabicyclo[2.2.2] oct-3′-yl ester di-hydrochloride salt]
- Physical and chemical stability ([1]; 25° C. and 97% relative humidity (open)): both physically and chemically stable
- Physical and chemical stability ([1]; temperature elevated to 40° C. or 60° C., 96% relative humidity (open)): underwent liquescence
- Stability under GMP storage [2]: stable
- Physical and chemical stability [3]: both physically and chemically stable

Molecule: COc1cc(N)c(Cl)cc1C(=O)N[C@@H]1CCN(CCCCCC(=O)O[C@H]2CN3CCC2CC3)C[C@@H]1OC [Form I, (3S, 4R, 3′R)-6-[4-(4-amino-5-chloro-2-methoxy-benzoylamino)-3-methoxy-piperidin-1-yl]-hexanoic acid 1-azabicyclo[2.2.2]oct-3′-yl ester]
- Thermodynamic stability among anhydrous forms ([4]; based on the outcome of the slurry experiments): most thermodynamically stable anhydrous form
- Resulting Form ([4]; solvent 1-Propanol): Form 1
- Resulting Form ([4]; solvent Acetonitrile): Form 1
- Resulting Form ([4]; solvent Ethanol): Form 1
- Resulting Form ([4]; solvent Methanol): Form 1
- Resulting Form ([4]; solvent Water): Form 1

Molecule: (3S, 4R, 3′R)-6-[4-(4-amino-5-chloro-2-methoxy-benzoylamino)-3-methoxy-piperidin-1-yl]-hexanoic acid 1-azabicyclo[2.2.2]oct-3′-yl ester
- Dehydration mass loss (TGA) [5]: absent
- Purity HPLC (Area %) ([6]; 0 months): 99.3 Area %
- Water Content ([6]; 0 months): 0.45%
- Purity HPLC (Area %) ([6]; 3 months): 99.2 Area %
- Water Content ([6]; 3 months): 6.47%
- Purity HPLC (Area %) ([6]; 6 months): 99.3 Area %
- Water Content ([6]; 6 months): 8.47%
- Purity HPLC (Area %) ([6]; 9 months): 99.2 Area %
- Water Content ([6]; 9 months): 8.20%
- Purity HPLC (Area %) ([6]; 12 months): 99.3 Area %
- Water Content ([6]; 12 months): 8.43%
- Decrease in strength of the active ingredient ([6]; due to increase in water content over 6 to 12 months): approximately 8%
